Patent US20260124244A1, “MEGAKARYOCYTE DERIVATIVES FOR TREATMENT OF DRY EYE DISEASES” (Stellular Bio, Inc., priority 2023, published 2026)

What was measured:
[1] = system: human corneal epithelial (HCE-T) cells; test: HCE-T cell proliferation, xCELLigence RTCA cell index; type: cell-based; details: 72-hour time course; EGF 30.4 pg/ml to 31.2 ng/ml; MLC lysates 0.025-0.75% (v/v) (high speed centrifugation) or 0.22 μm filtered
Experimental: Effect of MLC lysate on proliferation of human corneal epithelial (HCE-T) cells was measured. Briefly, HCE-T cells were plated on to E-Plate 96 (Agilent Technologies, Santa Clara, CA) at 2,500 cells per well in minimal KGM-Gold medium (Lonza, Walkersville, MD). Minimal KGM-Gold medium contains all KGM-Gold BulletKit components except for EGF (positive control), MLC lysates, and/or bovine pituitary extract. For negative control vehicle only, phosphate buffer solution (PBS) was used. After 24 hours, cells were treated with indicated concentrations of MLC lysates, EGF (SinoBiological Inc., Beijing, China) or PBS. The E-plate was then returned to the xCELLigence RTCA instrument for data collection for an additional 48 hours. Area under the curve (AUC) of normalized Cell Index was calculated using RTCA Software Pro and then normalized to vehicle. FIG. 10A illustrates results of a 72-hour time course study of effects of EGF on proliferation of HCE-T cells at a concentration ranging from 30.4 pg/ml to 31.2 ng/ml. FIG. 10B is an alternate representation of FIG. 10A showing normalized area under curved of normalized cell index for each concentration. […] FIG. 11A illustrates results of a 72-hour time course study of effects of MLC Lysates processed with high speed centrifugation on the proliferation of HCE-T cells at a dose ranging from 0.025% (v/v) to 0.75% (v/v). […]

[2] = system: rat medial meniscal tear (MMT) model of osteoarthritis (OA); test: Joint histology in rat MMT osteoarthritis model; type: in vivo; details: day 28 after surgery
Experimental: (§1) In vivo effect of MLC lysate and PLC in a subject having osteoarthritis was measured. A rat medial meniscal tear (MMT) model of osteoarthritis (OA) was used in an in vivo study for testing efficacy of megakaryocyte derivatives. […] As described in FIG. 13A, Lewis rats were subjected to meniscal tear surgery on day 0. Dynamic weight bearing and electronic Von Frey Filament analyses were conducted at 7, 14, 21 and 28 days following surgery. Subjects were administered with MLC lysates or PLCs by intraarticular injection after DWB and EVFF analysis on days 7, 14 and 21 following surgery. On day 28 following surgery, serum was collected, and animals were sacrificed to allow for joint histology. PRP and recombinant human FGF-18 were used as positive controls. For negative control vehicle only was used. In sum, the study comprised the following groups: No surgery (n=5), MMT Surgery+Vehicle (n=15), MMT Surgery+Platelet-like cells (n=15), MMT Surgery+Platelet-rich plasma (n=15), MMT Surgery+rFGF-18 (n=15), and MMT Surgery+MLC Lysate (n=15).
As outlined in FIG. 13A, a histological analysis of test subjects was performed 28 days following the surgery. […] Additionally, synovitis score wad medial tibial osteophyte measurement was performed based on analysis of histological data.

[3] = system: rat medial meniscal tear (MMT) model of osteoarthritis (OA); test: Electronic Von Frey Filament test in rat MMT osteoarthritis model; type: in vivo; details: intraarticular injection on days 7, 14 and 21 after surgery; compared to vehicle
Experimental: as §1
(§2) FIGS. 13B and 13C illustrate efficacy results of MLC lysate and PLC in the rat medial meniscal tear model of osteoarthritis using dynamic weight bearing test and electronic Von Frey Filament test, respectively.

[4] = system: rat medial meniscal tear (MMT) model of osteoarthritis (OA); test: Dynamic weight bearing test in rat MMT osteoarthritis model; type: in vivo; details: intraarticular injection on days 7, 14 and 21 after surgery; tested days 7-28
Experimental: as §1, §2

Substance | proliferation of HCE-T cells (AUC of normalized Cell Index, normalized to vehicle) [1] | medial tibial osteophyte measurement compared to vehicle [2] | substantial cartilage degeneration width compared to vehicle [2] | synovitis score compared to vehicle [2] | electronic von Frey filament thresholds [3] | pain profile in dynamic weight bearing testing [4]
EGF: EGF (SinoBiological Inc.) used as positive control for HCE-T proliferation (NSDSECPLSHDGYCLHDGVCMYIEALDKYACNCVVGYIGERCQYRDLKWWELR; Epidermal growth factor; UniProt P01133 971-1023, looked up) | promotes corneal epithelial cell proliferation in a dose-dependent manner |  |  |  |  | 
recombinant human FGF-18: recombinant human FGF-18 used as positive control in the rat MMT model |  | resulted in a significant increase | significant reduction compared to vehicle treatment | significant increase in synovitis score | significant decrease in thresholds | progressive increasing signal over time
